These results are taken from patent US5521199A, “Piperidinyl compounds as neurokinin receptor antagonists” (Zeneca Limited, priority 1993, dated 1996).

Usually Ki stands for a dissociation constant, usually derived from enzyme kinetics or from competition with a known ligand. The low end stands for a stronger hold on the target, the high end for a looser hold on the target.

One assay addresses T1, human NK2 receptor (Homo sapiens, UniProt P21452).
T1 sequence (P21452 1-398): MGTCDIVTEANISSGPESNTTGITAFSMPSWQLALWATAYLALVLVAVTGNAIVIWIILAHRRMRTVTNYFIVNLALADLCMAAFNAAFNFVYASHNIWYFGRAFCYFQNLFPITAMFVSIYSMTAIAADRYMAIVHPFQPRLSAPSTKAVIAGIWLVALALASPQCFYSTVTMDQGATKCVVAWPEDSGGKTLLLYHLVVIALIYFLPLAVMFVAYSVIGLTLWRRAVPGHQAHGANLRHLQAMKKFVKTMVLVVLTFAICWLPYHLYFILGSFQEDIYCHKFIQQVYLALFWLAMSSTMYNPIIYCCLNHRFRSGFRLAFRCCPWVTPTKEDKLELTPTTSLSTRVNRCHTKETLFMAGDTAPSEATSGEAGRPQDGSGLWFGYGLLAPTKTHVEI
The assay is described as follows: Neurokinin A (NKA) Receptor-binding Assay (Test A). The note with it: 3H-NKA, MELM, 60 min at 25° C., pH 7.4.

The next assay addresses T2, guinea pig trachea (Cavia porcellus, UniProt Q64077).
T2 construct: The trachea are removed, trimmed of excess tissue and divided into two segments; from tissue; host or cells: trachea of male guinea pigs, rings in tissue baths
T2 sequence (Q64077 1-402): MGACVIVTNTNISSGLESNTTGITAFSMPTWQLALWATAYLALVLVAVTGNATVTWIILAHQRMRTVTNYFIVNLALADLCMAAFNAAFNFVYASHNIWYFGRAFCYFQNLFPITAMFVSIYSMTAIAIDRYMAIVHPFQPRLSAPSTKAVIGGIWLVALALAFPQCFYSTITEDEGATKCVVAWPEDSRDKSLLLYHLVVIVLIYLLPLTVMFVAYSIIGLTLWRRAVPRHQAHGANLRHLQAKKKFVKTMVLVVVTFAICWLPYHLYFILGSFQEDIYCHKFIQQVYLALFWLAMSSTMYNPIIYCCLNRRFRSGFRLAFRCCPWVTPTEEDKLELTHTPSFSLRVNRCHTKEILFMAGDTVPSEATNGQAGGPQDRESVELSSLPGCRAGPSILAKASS
Description: Guinea Pig Trachea Assay (Test B). Format: cell-based. The note with it: antagonism of NKA or [β-ala8]-NKA(4-10) contraction; -log molar KB; read-out: pKB (Test B) (converted). The procedure:
Guinea Pig Trachea Assay (Test B)
In the test described below either NKA or [β-ala^8 ]-NKA(4-10) is used as an agonist. The chosen agonist is referred to as AG throughout the description.
Male guinea pigs are killed by a sharp blow to the back of the head. The trachea are removed, trimmed of excess tissue and divided into two segments. […] Initial tension placed on each tissue is 1 g, which is maintained throughout a 0.5 to 1.5 hour equilibration period before addition of other drugs. Contractile responses are measured on a Grass polygraph via Grass FT-03 force transducers.
Tissues are challenged repetitively with a single concentration of AG (10 nM) with intervening 30 min periods with washing to allow the tension to return to baseline levels. […] Percent inhibition is determined when a Compound produces a statistically significant (p<0.05) reduction of the contraction and is calculated using the second contractile response as 100%.
Potencies of selected Compounds are evaluated by calculating apparent dissociation constants (KB) for each concentration tested using the standard equation: […]
where dose ratio=antilog[(AG -log molar EC50 without Compound)--(AG -log molar EC50 with Compound)]. The KB values may be converted to the negative logarithms and expressed as -log molar KB (i.e. pKB). […] The EC50 values are converted to the negative logarithms and expressed as -log molar EC50. […]

In another assay the test system is NK2 receptor. The assay is described as follows: Guinea Pig Labored Abdominal Breathing (Dyspnea) Assay (Test C). The assay is classed as in vivo. The note with it: oral, two hours prior to challenge with the agonist [β-ala8]-NKA(4-10) aerosol; all five animals fully protected. The procedure:
Guinea Pig Labored Abdominal Breathing (Dyspnea) Assay (Test C)
Using the clear plastic chamber described previously by Snyder et al. to secure guinea pigs for a head-only aerosol exposure to bronchoconstrictor agonists, agonist is administered by aerosol to six conscious guinea pigs simultaneously during each maneuver. The tachykinin NK2-selective agonist, [β-ala^8 ]-NKA(4-10), 3×10^-5 M, is aerosolized from a Devilbiss Model 25 ultrasonic nebulizer into an air stream entering the chamber at a rate of 2 L/minute.
Guinea pigs (275-400 g) are fasted for approximately 16 hours prior to experimentation. Compounds to be evaluated for blockade of effects of [β-ala^8 ]-NKA(4-10) or their vehicle (10% PEG400 in saline) are administered p.o. or i.v. at various times before aerosol agonist challenge. All animals are pretreated with atropine (10 mg/kg, j.p., 45 minutes pretreatment) indomethacin (10 mg/kg, i.p., 30 minutes pretreatment), propranolol (5 mg/kg, i.p., 30 minutes pretreatment), and thiorphan (1 mg/ml aerosol for 5 minutes, 15 minutes pretreatment)
Aerosol challenge with the agonist produces an initial increase in respiratory rate followed by a decrease with early signs of minor involvement of the abdominal muscles. […] Time, in seconds, from the onset of aerosol challenge to this end point is determined for each animal by using a stopwatch. […]

Structures can show the parent of a compound that is named as a salt.

Description for human NK2 receptor: Membrane preparations (MELM) prepared from the MEL cells containing high-affinity NK2 receptors were prepared according to a published protocol (D. Aharony, et al., Neuropeptides (1992) 23, 121-130) with the following minor modifications: (1) Iodoacetamide (1 mM) was included in the homogenization buffer; (2) Homogenization was as published but for a shorter period of 10 seconds once and at a slower speed (setting 10); and (3) The equilibration step with KCl/EDTA was not performed.

As for `CC(=O)OCCC1CCN(CCC(CN(C)C(=O)c2ccccc2)c2ccc(Cl)c(Cl)c2)CC1` (centres unmarked) [Example 10, N-[2-(3,4-Dichlorophenyl)-4-[4-(2-acetoxyethyl)piperidino]butyl]-N-methylbenzamide hydrochloride], the inhibitory constant (Ki) on human NK2 receptor amounted to 40 nM. Besides, the Kb on guinea pig trachea was 15.8 nM.
Regarding `CCC(O)(CC)C1CCN(CC[C@H](CN(C)C(=O)c2ccccc2)c2ccc(Cl)c(Cl)c2)CC1.Cl` [Example 16, (S)-N-[2-(3,4-Dichlorophenyl)-4-[4-(1-ethyl-1-hydroxypropyl)piperidino]butyl]-N-methylbenzamide hydrochloride], affinity on human NK2 receptor was put at a Ki of 1.5 nM. The “protection (Test C)” value in the assay with NK2 receptor is recorded as 100%. Further, the Kb on guinea pig trachea is 3.98 nM.
